Laboratory results as given in publication PMC9436819 (JACC: Basic to Translational Science, 2022).
Entries after “also recorded” stand apart in the source; their conditions may differ. Like-named read-outs stand apart in the source and are kept apart here.

How the values were obtained:
healthy adults = assay: Overall safety and tolerability (AEs, ECG, vital signs, laboratory tests), all cohorts; format: in vivo, human
Procedure: Safety was assessed by the incidence of adverse events (AEs) and by the incidence of reduced LVEF. Treatment-emergent AEs (TEAEs) were defined as AEs that began or increased after study drug administration. All AEs were coded using the Medical Dictionary for Regulatory Activities, version 21.1, and graded using the National Cancer Institute Common Terminology Criteria for AEs (version 4.03) 5-point severity scale.[18] Each AE was judged as either related or unrelated to the study drug by the treating investigator. Clinical laboratory tests were obtained at regular intervals in all cohorts.
For safety monitoring, participants in all cohorts had periodic echocardiograms, which were assessed by a cardiologist. In the SAD and MAD cohorts, echocardiograms were also reviewed by an echocardiography core laboratory for PD assessments, as described in the section on echocardiographic methods. In addition, participants in all cohorts were monitored with continuous 12-lead ECG recording using Holter monitors. For safety monitoring, a single 12-lead ECG was extracted at screening, predose, and periodically throughout follow-up and interpreted by the investigator. In the SAD, MAD, and CYP2D6-PM cohorts, cardiodynamic ECGs (triplicate 10-second, 12-lead ECG recordings) were obtained before the corresponding PK blood sample (see the Supplemental Appendix for full details on blood sampling), and ECG intervals were quantitated by qualified readers.

[1] = Plasma pharmacokinetics after single oral doses (SAD cohorts); format: in vivo, human; conditions: for half-life / Cmax / AUC / Tmax / AUC(0-inf) / Vd/F: human, plasma; for half-life: po; for AUC: read-out: AUC24; for Vd/F: read-out: Vz/F
Procedure: The SAD portion of the study used a randomized, double-blind, placebo-controlled, sequential, escalating dose design, in which participants received single ascending oral doses of the study drug. Seven cohorts were dosed in sequence (Figure 1).
For all study groups, blood samples for PK assessment were obtained predose, up to 12 times daily on day 1, and then at regular intervals throughout the study (see Supplemental Appendix for details). Standard noncompartmental methods were used to calculate PK parameters using Phoenix WinNonlin, version 7.0; actual sample collection times were used.
Statistical A nalysis of P harm acokinetic (PK) P aram eters
The PK analyses w ere int ended to assess single- dose kinetics, multiple-dose (steady state) […]
and the influence of food on the absorption and eli mination of aficamten.
For the SAD cohort, dos e proportionality of afi camten was evaluat ed using a power model on […]
and day 14 or 17. Several considerations were taken into account when assessing dose proportionality of the drug, such as results derived from the power model statistical analysis (e.g., the slope estimate and width of the 2- sided 95% confidence intervals [CIs ]), qualitative assessment specific to th e PK of the drug, and clinical relev ance. For th e SAD cohort, the […]
time curve (A UC)from time 0 to the time of the last measurable concentration(AUC last), AUC […]
plasma concent ration ( C max). […]
The statistical linear relationship between the ln-transformed PK parameters and the ln-transformed dos e was verified by including the quadratic (ln Dos e)2 and cubic (ln Dose) 3 effects.
The statistical linear relationship was established if the quadratic and cubi c effects were not […]
significant, but of such small magnitude that they were not clinically relevant. The dose-proportionality analysis was performed using SAS® PROC MIXED.

[2] = single oral dose 1 mg, geometric mean (geometric CV%), n = 6
[3] = single oral dose 3 mg, geometric mean (geometric CV%), n = 6
[4] = single oral dose 3 mg, mean ± SD, n = 5
[5] = single oral dose 10 mg, mean ± SD, n = 4
[6] = single oral dose 25 mg, geometric mean (geometric CV%), n = 6
[7] = single oral dose 25 mg, mean ± SD, n = 6
[8] = single oral dose 40 mg, geometric mean (geometric CV%), n = 6
[9] = single oral dose 40 mg, mean ± SD, n = 5
[10] = single oral dose 50 mg, geometric mean (geometric CV%), n = 11
[11] = single oral dose 50 mg, mean ± SD, n = 9

Structure (SMILES): CCc1nc(-c2ccc3c(c2)CC[C@H]3NC(=O)c2cnn(C)c2)no1 [Aficamten]
- Discontinuation of the study because of AEs (healthy adults; all cohorts): no participants discontinued
- Serious AEs (healthy adults; all cohorts): no serious AEs; also recorded: without serious AEs
- Vital signs at postdose timepoints (healthy adults; all cohorts): within normal limits
- QTcF at baseline or any assessment during the dosing interval (healthy adults; all cohorts, exception of 2 individuals with baseline QTcF ≥440 ms whose QTcF increased by 3 and 13 ms): ≤ 450 ms
- Increase in QTcF interval (healthy adults; all cohorts, only exception was 1 participant in the SAD placebo group): ≤ 30 ms
- Serum chemistry, hematology, or urinalysis findings (healthy adults; during the study): No clinically significant
- Effect on the QT interval (cardiodynamic assessments) (healthy adults; following single or multiple doses): no evidence of an effect
- Tolerability (healthy adults; single doses of ≤50 mg or daily dosing of ≤10 mg for 14 or 17 days): safe and well tolerated
- Severity of observed TEAEs (healthy adults; single-dose and multiple-dose administration): generally mild (grade 1)
- half-life ([1]; 3 mg, single oral dose 3 mg, mean ± SD, n = 5, read-out: t1/2 (converted)): 75.1 ± 21.8 h
- half-life ([1]; 10 mg, single oral dose 10 mg (extensive metabolizers), mean ± SD, n = 4, read-out: t1/2 (converted)): 85 h
- half-life ([1]; 25 mg, single oral dose 25 mg, mean ± SD, n = 6, read-out: t1/2 (converted)): 79.8 ± 10 h
- half-life ([1]; 40 mg, single oral dose 40 mg, mean ± SD, n = 4, read-out: t1/2 (converted)): 79.2 ± 18.5 h
- half-life ([1]; 50 mg, single oral dose 50 mg, mean ± SD, n = 9, read-out: t1/2 (converted)): 80.4 ± 14.9 h
- half-life ([1]; single oral doses, read-out: Mean half-life, range across single-dose cohorts): 75 to 85 h
- Cmax [1, 2]: 5.8 ng/mL
- AUC [1, 2]: 50 ng·h/mL
- Tmax ([1]; single oral dose 1 mg, median (range), n = 6, read-out: Tmax): 1 h
- AUC(0-inf) ([1]; single oral dose 3 mg, geometric mean (geometric CV%), n = 5): 823 ng·h/mL
- Cmax [1, 3]: 26.1 ng/mL
- AUC [1, 3]: 174 ng·h/mL
- Vd/F [1, 4]: 393 ± 122 L
- Tmax ([1]; single oral dose 3 mg, median (range), n = 6, read-out: Tmax): 1.3 h
- AUC ([1]; single oral dose 10 mg (extensive metabolizers), geometric mean (geometric CV%), n = 6): 679 ng·h/mL
- AUC(0-inf) ([1]; single oral dose 10 mg, geometric mean (geometric CV%), n = 4): 3430 ng·h/mL
- Cmax ([1]; single oral dose 10 mg, geometric mean (geometric CV%), n = 6): 70.5 ng/mL
- Vd/F [1, 5]: 362 ± 108 L
- Tmax ([1]; single oral dose 10 mg, median (range), n = 6, read-out: Tmax): 2.8 h
- AUC(0-inf) [1, 6]: 7110 ng·h/mL
- Cmax [1, 6]: 193 ng/mL
- AUC [1, 6]: 1490 ng·h/mL
- Vd/F [1, 7]: 405 ± 56.6 L
- Tmax ([1]; single oral dose 25 mg, median (range), n = 6, read-out: Tmax): 1.8 h
- AUC(0-inf) ([1]; single oral dose 40 mg, geometric mean (geometric CV%), n = 5): 11900 ng·h/mL
- Cmax [1, 8]: 383 ng/mL
- AUC [1, 8]: 2530 ng·h/mL
- Vd/F [1, 9]: 382 ± 66.9 L
- Tmax ([1]; single oral dose 40 mg, median (range), n = 6, read-out: Tmax): 1 h
- AUC(0-inf) ([1]; single oral dose 50 mg, geometric mean (geometric CV%), n = 9): 13700 ng·h/mL
- Cmax [1, 10]: 359 ng/mL
- AUC [1, 10]: 2830 ng·h/mL
- Vd/F [1, 11]: 431 ± 123 L
- Tmax ([1]; single oral dose 50 mg, median (range), n = 11, read-out: Tmax): 1 h
- Tmax ([1]; single oral dose 75 mg, median (range), n = 1, read-out: Tmax): 0.5 h
- Cmax ([1]; single oral dose 75 mg, n = 1): 1220 ng/mL
- AUC ([1]; single oral dose 75 mg, n = 1): 4560 ng·h/mL
- Tmax ([1]; single oral doses 1 to 75 mg, read-out: Median time to reach peak concentrations, range across doses): 0.5 to 2.76 h
- CL/F [1, 4]: 4.2 ± 3.1 L/h
- t1/2 ([1]; single oral dose 10 mg (extensive metabolizers), mean ± SD, n = 4): 84.7 ± 17.7 h
- CL/F [1, 5]: 3.0 ± 0.7 L/h
- CL/F [1, 7]: 3.6 ± 0.5 L/h
- CL/F [1, 9]: 3.4 ± 0.6 L/h
- CL/F [1, 11]: 3.8 ± 1.1 L/h
- Maximum time to maximum observed concentration across all participants ([1]; single oral doses): 4.0 h
- Dose proportionality of Cmax and exposure ([1]; single oral doses 1 to 50 mg): dose-proportional; also recorded: dose proportionality; also recorded: linear kinetics
